Reference: article PMC9241695, “Selective Metal Chelation by a Thiosemicarbazone Derivative Interferes with Mitochondrial Respiration and Ribosome Biogenesis in Candida albicans” (Microbiology Spectrum, 2022)
In brackets after ≈: the same amount, converted by molar mass.

Legend:
C. krusei CK1 = assay: Microbroth dilution MIC80; assay type: cell-based, Candida krusei; conditions: Pichia kudriavzevii, CK1
Source text: (§1) Compound library. The thiosemicarbazone derivatives Triapine and COTI-2 were purchased from Med Chem Express (MCE). The other 87 thiosemicarbazones used in this study were previously synthesized by our collaborators (1, 2). Their structures are shown in Table 1 and Table S1 to help the reader clearly understand the relationship between structure and activity.
(§2) Strains and culture conditions. Clinically derived C. albicans isolates, including G5, F5, and Gu5, were kindly provided by Professor Joachim Morschhäuser of the University of Würzburg. Other clinical C. albicans isolates were kindly donated by Professor Qingguo Qi of Shandong University and Qianfoshan Hospital of Shandong Province Other Candida strains were obtained from Jinan Central Hospital.
(§3) The zap1 mutant and its complemented strain were kindly provided by Professor Aaron P. Mitchell of Carnegie Mellon University (3). The C. neoformans strains used in this study was kindly donated by Professor Guojian Liao of Southwest University and A. fumigatus strain used in this study was provided by Professor Ling Lu of Nanjing Normal University. Before in vitro and in vivo experiments, all C. albicans strains were grown on YPD agar plates. After culturing at 30°C for 24 h, colonies of each strain were cultured in liquid YPD medium at 30°C with continuous shaking […]
(§4) Antifungal susceptibility testing. To determine in vitro antifungal activities, the microbroth dilution method was carried out in RPMI1640 medium according to the guidelines of the Clinical and Laboratory Standards Institute (4, 5). The initial concentration in RPMI1640 medium was 1 × 10^3 CFU/mL for the C. albicans and C. neoformans suspensions but 1 × 10^4 CFU/mL for A. fumigatus. The range of final drug concentrations was 0.0156–64 μg/mL. The plates were incubated at35°C for 24 […]
(§5) h (for C. albicans, C. krusei, C. tropicalis, C. parapsilosis) or 48 h (for C. neoformans, A. fumigatus). The MIC was determined based on visible growth inhibition compared with the control. All experiments were performed in duplicate. […]

C. albicans SC5314 cells = assay: Mitochondrial membrane potential by Rh123; assay type: cell-based, Candida albicans; conditions: 0.125-1 μg/mL, 30°C, 6 h
Experimental: the fluorescent complex […] (CTF) is commonly used to indicate the intensity of microbial respiration. C. albicans SC5314 treated with 19ak was stained with 1 mM CTC for 30 min, followed by flow cytometry analysis of respiratory activity based on fluorescence intensity. Images of cells were obtained using a fluorescence microscope (IX71, Olympus, Tokyo, Japan). The Cell Counting Kit-8 (CCK-8) assay is used to measure the dehydrogenase activity in the mitochondria of C. albicans or mammalian cells. C. albicans SC5314 (5 × 10^6 cells/mL in RPMI1640 medium) were treated with different concentrations of 19ak in 96-well plates at 30°C for 12 h or 48 h. […] After an additional 2 h of incubation, OD450 in each well was detected with a microplate reader. […]
(§6) Mitochondrial isolation and detection of mitochondrial respiratory chain complex activity. […] The activities of mitochondrial respiratory chain complexes I-IV were determined by using the Micro Mitochondrial Respiratory Chain Complex Activity Assay Kit (Solarbio, Beijing, China). The concentration of protein was determined using the BCA Protein Assay Kit (Beyotime, Haimen, China).
(§7) Mitochondrial complex activity was expressed as nmol/min/mg protein. […]
Measurement of intracellular ATP production. […] Cellular protein concentrations were determined using a BCA Protein Assay Kit (Beyotime, Haimen, China). […]

C. parapsilosis CP001 = assay: Microbroth dilution MIC80; assay type: cell-based, Candida parapsilosis; conditions: Lodderomyces parapsilosis, CP001
Source text: as §1, §2, §3, §4, §5

C. albicans SC5314 = assay: Antifungal susceptibility testing, microbroth dilution MIC; assay type: cell-based; conditions: Candida albicans, SC5314; C. albicans wild-type strain; RPMI1640, 35°C, 24 h; read-out: MIC (μg/mL) against fungi SC5314
Method in brief: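 CLSI microbroth dilution in RPMI1640, final drug range 0.0156–64 μg/mL. Inocula 1 × 10^3 CFU/mL for C. albicans and C. neoformans, 1 × 10^4 CFU/mL for A. fumigatus; 35°C for 24 h (C. albicans) or 48 h (C. neoformans, A. fumigatus). MIC read as visible growth inhibition versus control, in duplicate.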

C. neoformans 108 = assay: Microbroth dilution MIC80; assay type: cell-based; conditions: Cryptococcus neoformans, 108
Source text: as §1, §2, §3, §4, §5

C. albicans CA1 = assay: Microbroth dilution MIC80; assay type: cell-based; conditions: Candida albicans, CA1
Source text: as §1, §2, §3, §4, §5

C. albicans CA4 = assay: Microbroth dilution MIC80; assay type: cell-based; conditions: Candida albicans, CA4
Source text: as §1, §2, §3, §4, §5

C. albicans 28I = assay: Microbroth dilution MIC80; assay type: cell-based; conditions: Candida albicans, 28I
Source text: as §1, §2, §3, §4, §5

[1] = tested on: mammalian cells of 16HBE or HepG2; assay: CCK-8 reduction assay, mitochondrial dehydrogenase activity; assay type: cell-based, human; conditions: 5 μg/mL, 12 h or 48 h
Experimental: the fluorescent complex […] (CTF) is commonly used to indicate the intensity of microbial respiration. C. albicans SC5314 treated with 19ak was stained with 1 mM CTC for 30 min, followed by flow cytometry analysis of respiratory activity based on fluorescence intensity. Images of cells were obtained using a fluorescence microscope (IX71, Olympus, Tokyo, Japan). The Cell Counting Kit-8 (CCK-8) assay is used to measure the dehydrogenase activity in the mitochondria of C. albicans or mammalian cells. C. albicans SC5314 (5 × 10^6 cells/mL in RPMI1640 medium) were treated with different concentrations of 19ak in 96-well plates at 30°C for 12 h or 48 h. 10 μL of CCK-8 solution was added to each well. After an additional 2 h of incubation, OD450 in each well was detected with a microplate reader. […]
as §6, §7

C/C(=N\NC(=S)N(C)C)c1ccccn1 [Compound 19ak]
MIC80 (C. krusei CK1): 0.125 µg/mL (≈ 0.562 µM)
Mitochondrial membrane potential (mtΔψ), Rh123 (C. albicans SC5314 cells): decrease in mtΔψ
MIC80 (C. parapsilosis CP001): 0.125 µg/mL (≈ 0.562 µM)
MIC (C. albicans SC5314): 0.125 µg/mL (≈ 0.562 µM)
MIC80 (C. neoformans 108): 0.25 µg/mL (≈ 1.12 µM)
MIC80 (C. albicans CA1): 0.25 µg/mL (≈ 1.12 µM)
MIC80 (C. albicans CA4): 0.125 µg/mL (≈ 0.562 µM)
MIC80 (C. albicans 28I): 0.125 µg/mL (≈ 0.562 µM)
Mitochondrial dehydrogenase activity of mammalian cells (CCK-8) [1]: minimal inhibitory effect
